For assay [1], the system named is recombinant HMPV CAN97-83 (MPV-GFP1). The assay is described as follows: HMPV antiviral assay (MPV-GFP1 eGFP fluorescence in Vero E6 cells). The assay is classed as cell-based. The conditions noted are these: human metapneumovirus, Vero C1008, 120 h, read-out: HMPV EC50. In outline: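 Vero E6 cells in serum-free OptiMEM with 0.5 μg/mL TPCK-trypsin infected with eGFP-expressing HMPV CAN97-83 (MPV-GFP1) at MOI 0.05. 8-point […] ½-step dilutions from 8 or 2 μM, 0.5% DMSO, 5 days at 32 °C. eGFP fluorescence normalized to infected untreated wells; EC50 from four-parameter logistic fit.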

In assay [2] the test system is genotype A, "Long" strain RSV. The assay is described as follows: RSV-A assay (CPE, ATPlite readout in Hep-2 cells). The assay is classed as cell-based. The conditions noted are these: human respiratory syncytial virus. In outline:
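Hep-2 cells (8,000/well) received 2-fold serial compound dilutions in duplicate and RSV Long strain at MOI 0.1. After 5 days' incubation, cell health was read as ATP by ATPlite luminescence, with virus-only and uninfected controls defining max and minimum CPE; EC50 reported.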
In general terms: Cellular ATP, detected with luciferase, serves as a proxy for viable cell number.

Setting [3] is: HEp-2, Hep-2 cells, genotype A "Long" strain RSV, MOI 0.1, read-out: Human RSV-A (“Long” strain) EC50.

Structures are written as SMILES. Like-named read-outs stand apart in the source and are kept apart here.

`COc1cc(C(=O)NC[C@](O)(c2cc3c(c(-c4ccc(F)cc4)n2)OC[C@]3(C)C(N)=O)C(F)(F)F)cc2c1OCCC2` [Example 508]: the EC50 in assay [1] was less than 500 nM; in assay [2] (setting [3]), greater than 200 nM.
The matching figures for `COc1cc(C(=O)NC[C@](O)(c2cc3c(c(-c4ccc(F)cc4)n2)OC[C@]3(C)C(N)=O)C(F)(F)F)cc2cc(F)cnc12` [Example 518]: greater than 500 nM and less than 200 nM.
The matching figures for `COc1cc(C(=O)NC[C@](O)(c2cc3c(c(-c4ccc(F)cc4)n2)OC[C@]3(C)C(N)=O)C(F)(F)F)cc2cc(C3CC3)cnc12` [Example 519]: less than 500 nM and less than 200 nM.
The matching figures for `COc1cc(C(=O)NC[C@](O)(c2cc3c(c(-c4ccc(F)cc4)n2)OC[C@]3(C)C(N)=O)C(F)(F)F)cc2cc(Cl)cnc12` [Example 520]: less than 500 nM and less than 200 nM.
For the compound `C[C@]1(C(N)=O)COc2c1cc([C@@](O)(CNC(=O)c1cc(OC3CC3)c3ncc(Cl)cc3c1)C(F)(F)F)nc2-c1ccc(F)cc1` [Example 521], the EC50 in assay [1] was less than 500 nM; in assay [2] (setting [3]), less than 200 nM.
The matching figures for `COc1cc(C(=O)NC[C@](O)(c2cc3c(c(-c4ccc(F)cc4)n2)OC[C@]3(C)C(N)=O)C2CC2)cc2cc(C3CC3)cnc12` [Example 522]: less than 500 nM and less than 200 nM.
The matching figures for `COc1cc(C(=O)NC[C@](O)(c2cc3c(c(-c4ccc(F)c(Cl)c4)n2)OC[C@]3(C)C(N)=O)C2CC2)cc2cc(C3CC3)cnc12` [Example 523]: less than 500 nM and less than 200 nM.
For `Cc1cnc2ccc(C(=O)NC[C@](O)(c3cc4c(c(-c5ccc(F)cc5)n3)OC[C@]4(C)C(N)=O)C(F)(F)F)cc2c1` [Example 524], the results for the EC50 in assay [1] and in assay [2] (setting [3]) were less than 500 nM and less than 200 nM, respectively.
With `C[C@]1(C(N)=O)COc2c1cc([C@@](O)(CNC(=O)c1ccc3ncc(Cl)cc3c1)C(F)(F)F)nc2-c1ccc(F)cc1` [Example 526], the values for the EC50 in assay [1] and in assay [2] (setting [3]) were less than 500 nM and less than 200 nM, respectively.
The matching figures for `C[C@]1(C(N)=O)COc2c1cc([C@@](O)(CNC(=O)c1ccc3ncc(F)cc3c1)C(F)(F)F)nc2-c1ccc(F)cc1` [Example 527]: greater than 500 nM and less than 200 nM.
The matching figures for `COc1cc(C(=O)NC[C@](O)(c2cc3c(c(-c4ccc(F)cc4)n2)OC[C@]3(C)C(N)=O)C2CC2)cc2cc(Cl)cnc12` [Example 528]: less than 500 nM and less than 200 nM.
The matching figures for `COc1cc(C(=O)NC[C@](O)(c2cc3c(c(-c4ccc(F)c(Cl)c4)n2)OC[C@]3(C)C(N)=O)C2CC2)cc2cc(Cl)cnc12` [Example 529]: less than 500 nM and less than 200 nM.
Regarding `C[C@]1(C(N)=O)COc2c1cc([C@@](O)(CNC(=O)c1cc(OC3CC3)c3ncc(Cl)cc3c1)C1CC1)nc2-c1ccc(F)cc1` [Example 530], the EC50 was less than 500 nM in assay [1] and less than 200 nM in assay [2] (setting [3]).
With `C[C@]1(C(N)=O)COc2c1cc([C@@](O)(CNC(=O)c1cc(OC3CC3)c3ncc(Cl)cc3c1)C1CC1)nc2-c1ccc(F)c(Cl)c1` [Example 531], the EC50 in assay [1] is less than 500 nM; in assay [2] (setting [3]), less than 200 nM.
In the case of `COc1cc(C(=O)NC[C@](O)(c2cc3c(c(-c4ccc(F)c(Cl)c4)n2)OC[C@]3(C)C(N)=O)C(F)(F)F)cc2cc(C3CC3)cnc12` [Example 532], the EC50 in assay [1] was less than 500 nM; in assay [2] (setting [3]), less than 200 nM.
The matching figures for `COc1cc(C(=O)NC[C@](O)(c2cc3c(c(-c4ccc(F)cc4)n2)OC[C@]3(C)C(N)=O)C(F)(F)F)cc2cc(C)c(C)nc12` [Example 533]: less than 500 nM and less than 200 nM.
The matching figures for `COc1cc(C(=O)NC[C@](O)(c2cc3c(c(-c4ccc(F)c(Cl)c4)n2)OC[C@]3(C)C(N)=O)C(F)(F)F)cc2cc(C)c(C)nc12` [Example 534]: less than 500 nM and less than 200 nM.
Turning to `COc1cc(C(=O)NC[C@](O)(c2cc3c(c(-c4ccc(F)cc4)n2)OC[C@]3(C)C(N)=O)C2CC2)cc2cc(C(F)(F)F)cnc12` [Example 535], the EC50 is less than 500 nM in assay [1] and less than 200 nM in assay [2] (setting [3]).
The matching figures for `COc1cc(C(=O)NC[C@](O)(c2cc3c(c(-c4ccc(F)c(Cl)c4)n2)OC[C@]3(C)C(N)=O)C2CC2)cc2cc(C(F)(F)F)cnc12` [Example 536]: less than 500 nM and less than 200 nM.
Turning to `C[C@]1(C(N)=O)COc2c1cc([C@@](O)(CNC(=O)c1cc(OC(F)F)c3nc(N)sc3c1)C(F)(F)F)nc2-c1ccc(F)cc1` [Example 537], the EC50 in assay [1] was greater than 500 nM; in assay [2] (setting [3]), less than 200 nM.
The matching figures for `CC(C)Oc1cc(C(=O)NC[C@](O)(c2cc3c(c(-c4ccc(F)cc4)n2)OC[C@]3(C)C(N)=O)C(F)(F)F)cc2sc(N)nc12` [Example 538]: greater than 500 nM and less than 200 nM.
The matching figures for `C[C@]1(C(N)=O)COc2c1cc([C@@](O)(CNC(=O)c1cc(OC(F)F)c3nc(N)sc3c1)C1CC1)nc2-c1ccc(F)cc1` [Example 539]: less than 500 nM and less than 200 nM.
`C[C@]1(C(N)=O)COc2c1cc([C@@](O)(CNC(=O)c1cc(OC(F)F)c3nc(N)sc3c1)C1CC1)nc2-c1ccc(F)c(Cl)c1` [Example 540]: the EC50 in assay [1] is less than 500 nM; in assay [2] (setting [3]), less than 200 nM.
For `C[C@]1(C(N)=O)COc2c1cc([C@@](O)(CNC(=O)c1cc(OC(F)(F)F)c3nc(N)sc3c1)C(F)(F)F)nc2-c1ccc(F)cc1` [Example 541], the 50% effective concentration (EC50) is greater than 500 nM in assay [1] and less than 200 nM in assay [2] (setting [3]).
In the case of `C[C@]1(C(N)=O)COc2c1cc([C@@](O)(CNC(=O)c1cc(OC(F)(F)F)c3nc(N)sc3c1)C(F)(F)F)nc2-c1ccc(F)c(Cl)c1` [Example 542], the EC50 was less than 500 nM in assay [1] and less than 200 nM in assay [2] (setting [3]).
Regarding `C[C@]1(C(N)=O)COc2c1cc([C@@](O)(CNC(=O)c1cc(OC3CC3)c3nc(N)sc3c1)C(F)(F)F)nc2-c1ccc(F)cc1` [Example 543], the EC50 is less than 500 nM in assay [1] and less than 200 nM in assay [2] (setting [3]).
The matching figures for `C[C@]1(C(N)=O)COc2c1cc([C@@](O)(CNC(=O)c1cc(OC3CC3)c3nc(N)sc3c1)C(F)(F)F)nc2-c1ccc(F)c(Cl)c1` [Example 544]: less than 500 nM and less than 200 nM.
The matching figures for `Cc1cnc2c(Nc3cnccn3)cc(C(=O)NC[C@](O)(c3cc4c(c(-c5ccc(F)cc5)n3)OC[C@]4(C)C(N)=O)C(F)(F)F)cc2c1` [Example 547]: greater than 500 nM and less than 200 nM.
The matching figures for `Cc1cnc2c(Nc3cncnc3)cc(C(=O)NC[C@](O)(c3cc4c(c(-c5ccc(F)cc5)n3)OC[C@]4(C)C(N)=O)C(F)(F)F)cc2c1` [Example 548]: greater than 500 nM and less than 200 nM.
In the case of `Cc1cnc2c(OC(=O)NC3(C)COC3)cc(C(=O)NC[C@](O)(c3cc4c(c(-c5ccc(F)cc5)n3)OC[C@]4(C)C(N)=O)C(F)(F)F)cc2c1` [Example 549], the EC50 in assay [1] was greater than 500 nM; in assay [2] (HEp-2, read-out: Human RSV-A (“Long” strain) EC50), less than 200 nM.
In the case of `Cc1cnc2c(NC(=O)NC3(C)CC3)cc(C(=O)NC[C@](O)(c3cc4c(c(-c5ccc(F)cc5)n3)OC[C@]4(C)C(N)=O)C(F)(F)F)cc2c1` [Example 550], the EC50 in assay [1] is less than 500 nM; in assay [2] (setting [3]) it was less than 200 nM.
Take `Cc1cnc2c(NC(=O)NCC(C)(C)O)cc(C(=O)NC[C@](O)(c3cc4c(c(-c5ccc(F)cc5)n3)OC[C@]4(C)C(N)=O)C(F)(F)F)cc2c1` [Example 551]: the EC50 in assay [1] is greater than 500 nM; in assay [2] (setting [3]), less than 200 nM.

What is called EC50 is the midpoint of the concentration-response curve.
